Patent publication US20160106814A1, “Novel Oral Pharmaceutical Composition for Treatment of Diabetes” (NOVO NORDISK A/S, priority 2013, published 2016)
*1 amine or outer side, *2 acyl side, *3 side chain or, on linkers, in order; H or OH if unused. Where a SMILES comes first, the peptide text is derived from it. Side-chain parts run from the residue outwards. [ ]: non-standard residue; d: D form. The star is where a group is joined. Decanoyl(10-(4-HOOC-PhO)) = O=C(O)c1ccc(OCCCCCCCCCC(=O)*)cc1; γGlu = O=C(O)[C@H](CCC(=O)[*:2])N[*:1]; AEEA = NCCOCCOCC(=O)O; Aib = CC(C)(N)C(=O)O

Assay: Transport of GLP-1 peptide across mucus-producing E12 cell monolayers in the presence of sodium caprate and BBI
Format: in vitro ADME
Conditions: pH 7.4, apical to basolateral
Description: Buffer was then removed and the experiment initiated. […] Receiver samples (200 μl) were taken every 15 min.
In all samples with GLP-1 peptide and mannitol, the concentration of GLP-1 peptide was determined using a LOCI assay (or LC-MS assay) and scintillation counter, respectively.

[1] = 100 μM GLP-1 peptide + 13 mM sodium caprate + 0.2% BBI
[2] = 100 μM GLP-1 peptide + 13 mM sodium caprate, without BBI

Row | SMILES | Papp A→B [1] | Papp A→B [2]
1 | CC[C@H](C)[C@H](NC(=O)[C@H](Cc1ccccc1)NC(=O)[C@H](CCC(=O)O)NC(=O)[C@H](CCCCNC(=O)COCCOCCNC(=O)COCCOCCNC(=O)CC[C@H](NC(=O)CCCCCCCCCOc1ccc(C(=O)O)cc1)C(=O)O)NC(=O)[C@H](C)NC(=O)[C@H](C)NC(=O)[C@H](CCC(N)=O)NC(=O)CNC(=O)[C@H](CCC(=O)O)NC(=O)[C@H](CC(C)C)NC(=O)[C@H](Cc1ccc(O)cc1)NC(=O)[C@H](CCCCNC(=O)COCCOCCNC(=O)COCCOCCNC(=O)CC[C@H](NC(=O)CCCCCCCCCOc1ccc(C(=O)O)cc1)C(=O)O)NC(=O)[C@H](CO)NC(=O)[C@@H](NC(=O)[C@H](CC(=O)O)NC(=O)[C@H](CO)NC(=O)[C@@H](NC(=O)[C@H](Cc1ccccc1)NC(=O)[C@@H](NC(=O)CNC(=O)[C@H](CCC(=O)O)NC(=O)C(C)(C)NC(=O)[C@@H](N)Cc1c[nH]cn1)[C@@H](C)O)[C@@H](C)O)C(C)C)C(=O)N[C@@H](C)C(=O)N[C@@H](Cc1c[nH]c2ccccc12)C(=O)N[C@@H](CC(C)C)C(=O)N[C@H](C(=O)N[C@@H](CCC(N)=O)C(=O)NCC(=O)N[C@@H](CCCNC(=N)N)C(=O)NCC(=O)O)C(C)C [GLP-1 peptide 6, N{Epsilon-18}-[2-[2-[2-[[2-[2-[2-[[(4S)-4-carboxy-4-[10-(4-carboxyphenoxy)-decanoylamino]butanoyl]amino]ethoxy]ethoxy]acetyl]amino]ethoxy]ethoxy]acetyl], N{Epsilon-26}-[2-[2-[2-[[2-[2-[2-[[(4S)-4-carboxy-4-[10-(4-carboxyphenoxy)decanoylamino]butanoyl]-amino]ethoxy]ethoxy]acetyl]amino]ethoxy]ethoxy]acetyl]-[Aib8,Lys18,Gln34]-GLP-1-(7-37)-peptide] | 0.296 ×10⁻⁶ cm/s | 0.159 ×10⁻⁶ cm/s
2 | CC[C@H](C)[C@H](NC(=O)[C@H](Cc1ccccc1)NC(=O)[C@H](CCC(=O)O)NC(=O)[C@H](CCCCNC(=O)COCCOCCNC(=O)COCCOCCNC(=O)CC[C@H](NC(=O)CCCCCCCCCOc1ccc(C(=O)O)cc1)C(=O)O)NC(=O)[C@H](C)NC(=O)[C@H](C)NC(=O)[C@H](CCC(N)=O)NC(=O)[C@H](CCC(=O)O)NC(=O)[C@H](CCC(=O)O)NC(=O)[C@H](CC(C)C)NC(=O)[C@H](Cc1ccc(O)cc1)NC(=O)[C@H](CCCCNC(=O)COCCOCCNC(=O)COCCOCCNC(=O)CC[C@H](NC(=O)CCCCCCCCCOc1ccc(C(=O)O)cc1)C(=O)O)NC(=O)[C@H](CO)NC(=O)[C@@H](NC(=O)[C@H](CC(=O)O)NC(=O)[C@H](CO)NC(=O)[C@@H](NC(=O)[C@H](Cc1ccccc1)NC(=O)[C@@H](NC(=O)CNC(=O)[C@H](CCC(=O)O)NC(=O)C(C)(C)NC(=O)[C@@H](N)Cc1c[nH]cn1)[C@@H](C)O)[C@@H](C)O)C(C)C)C(=O)N[C@@H](C)C(=O)N[C@@H](Cc1c[nH]c2ccccc12)C(=O)N[C@@H](CC(C)C)C(=O)N[C@H](C(=O)N[C@@H](CCCNC(=N)N)C(=O)NCC(=O)N[C@@H](CCCNC(=N)N)C(=O)NCC(=O)O)C(C)C [GLP-1 peptide 4, N{Epsilon-18}-[2-[2-[2-[[2-[2-[2-[[(4S)-4-carboxy-4-[10-(4-carboxyphenoxy)-decanoylamino]butanoyl]amino]ethoxy]ethoxy]acetyl]amino]ethoxy]ethoxy]acetyl], N{Epsilon-26}-[2-[2-[2-[[2-[2-[2-[[(4S)-4-carboxy-4-[10-(4-carboxyphenoxy)decanoylamino]butanoyl]-amino]ethoxy]ethoxy]acetyl]amino]ethoxy]ethoxy]acetyl]-[Aib8,Lys18,Glu22,Arg34]-GLP-1-(7-37)-peptide] (H-H[Aib]EGTFTSDVSK([AEEA-AEEA-γGlu-Decanoyl(10-(4-HOOC-PhO))])YLEEQAAK([AEEA-AEEA-γGlu-Decanoyl(10-(4-HOOC-PhO))])EFIAWLVRGRG-OH) | 0.529 ×10⁻⁶ cm/s | 0.204 ×10⁻⁶ cm/s
3 | CC[C@H](C)[C@H](NC(=O)[C@H](Cc1ccccc1)NC(=O)[C@H](CCC(=O)O)NC(=O)[C@H](CCCCNC(=O)COCCOCCNC(=O)COCCOCCNC(=O)CC[C@H](NC(=O)CCCCCCCCCOc1ccc(C(=O)O)cc1)C(=O)O)NC(=O)[C@H](C)NC(=O)[C@H](C)NC(=O)[C@H](CCC(N)=O)NC(=O)CNC(=O)[C@H](CCC(=O)O)NC(=O)[C@H](CC(C)C)NC(=O)[C@H](Cc1ccc(O)cc1)NC(=O)[C@H](CO)NC(=O)[C@H](CO)NC(=O)[C@@H](NC(=O)[C@H](CC(=O)O)NC(=O)[C@H](CO)NC(=O)[C@@H](NC(=O)[C@H](Cc1ccccc1)NC(=O)[C@@H](NC(=O)CNC(=O)[C@H](CCC(=O)O)NC(=O)C(C)(C)NC(=O)[C@@H](N)Cc1c[nH]cn1)[C@@H](C)O)[C@@H](C)O)C(C)C)C(=O)N[C@@H](C)C(=O)N[C@@H](Cc1c[nH]c2ccccc12)C(=O)N[C@@H](CC(C)C)C(=O)N[C@H](C(=O)N[C@@H](CCCNC(=N)N)C(=O)NCC(=O)N[C@@H](CCCNC(=N)N)C(=O)N[C@@H](CCCCNC(=O)COCCOCCNC(=O)COCCOCCNC(=O)CC[C@H](NC(=O)CCCCCCCCCOc1ccc(C(=O)O)cc1)C(=O)O)C(=O)O)C(C)C [GLP-1 peptide 9, N{Epsilon-26}-[2-[2-[2-[[2-[2-[2-[[(4S)-4-carboxy-4-[10-(4-carboxyphenoxy)-decanoylamino]butanoyl]amino]ethoxy]ethoxy]acetyl]amino]ethoxy]ethoxy]acetyl], N{Epsilon-37}-[2-[2-[2-[[2-[2-[2-[[(4S)-4-carboxy-4-[10-(4-carboxyphenoxy)decanoylamino]butanoyl]-amino]ethoxy]ethoxy]acetyl]amino]ethoxy]ethoxy]acetyl]-[Aib8,Arg34, Lys37]-GLP-1-(7-37)-peptide] | 0.379 ×10⁻⁶ cm/s | 0.272 ×10⁻⁶ cm/s
4 | CC[C@H](C)[C@H](NC(=O)[C@H](Cc1ccccc1)NC(=O)[C@H](CCC(=O)O)NC(=O)[C@H](CCCCNC(=O)COCCOCCNC(=O)COCCOCCNC(=O)CC[C@H](NC(=O)CCCCCCCCCOc1ccc(C(=O)O)cc1)C(=O)O)NC(=O)[C@H](C)NC(=O)[C@H](C)NC(=O)[C@H](CCC(N)=O)NC(=O)[C@H](CCC(=O)O)NC(=O)[C@H](CCC(=O)O)NC(=O)[C@H](CC(C)C)NC(=O)[C@H](Cc1ccc(O)cc1)NC(=O)[C@H](CCCCNC(=O)COCCOCCNC(=O)COCCOCCNC(=O)CC[C@H](NC(=O)CCCCCCCCCOc1ccc(C(=O)O)cc1)C(=O)O)NC(=O)[C@H](CO)NC(=O)[C@@H](NC(=O)[C@H](CC(=O)O)NC(=O)[C@H](CO)NC(=O)[C@@H](NC(=O)[C@H](Cc1ccccc1)NC(=O)[C@@H](NC(=O)CNC(=O)[C@H](CCC(=O)O)NC(=O)C(C)(C)NC(=O)[C@@H](N)Cc1c[nH]cn1)[C@@H](C)O)[C@@H](C)O)C(C)C)C(=O)N[C@@H](C)C(=O)N[C@@H](Cc1c[nH]c2ccccc12)C(=O)N[C@@H](CC(C)C)C(=O)N[C@H](C(=O)N[C@@H](CCC(N)=O)C(=O)NCC(=O)N[C@@H](CCCNC(=N)N)C(=O)NCC(=O)O)C(C)C [GLP-1 peptide 2, N{Epsilon-18}-[2-[2-[2-[[2-[2-[2-[[(4S)-4-carboxy-4-[10-(4-carboxyphenoxy)-decanoylamino]butanoyl]amino]ethoxy]ethoxy]acetyl]amino]ethoxy]ethoxy]acetyl], N{Epsilon-26}-[2-[2-[2-[[2-[2-[2-[[(4S)-4-carboxy-4-[10-(4-carboxyphenoxy)decanoylamino]butanoyl]-amino]ethoxy]ethoxy]acetyl]amino]ethoxy]ethoxy]acetyl]-[Aib8,Lys18,Glu22,Gln34]-GLP-1-(7-37)-peptide] | 0.438 ×10⁻⁶ cm/s | 0.389 ×10⁻⁶ cm/s
5 | CC[C@H](C)[C@H](NC(=O)[C@H](Cc1ccccc1)NC(=O)[C@H](CCC(=O)O)NC(=O)[C@H](CCCCNC(=O)COCCOCCNC(=O)COCCOCCNC(=O)CC[C@H](NC(=O)CCCCCCCCCCCCCCCCC(=O)O)C(=O)O)NC(=O)[C@H](C)NC(=O)[C@H](C)NC(=O)[C@H](CCC(N)=O)NC(=O)CNC(=O)[C@H](CCC(=O)O)NC(=O)[C@H](CC(C)C)NC(=O)[C@H](Cc1ccc(O)cc1)NC(=O)[C@H](CO)NC(=O)[C@H](CO)NC(=O)[C@@H](NC(=O)[C@H](CC(=O)O)NC(=O)[C@H](CO)NC(=O)[C@@H](NC(=O)[C@H](Cc1ccccc1)NC(=O)[C@@H](NC(=O)CNC(=O)[C@H](CCC(=O)O)NC(=O)C(C)(C)NC(=O)[C@@H](N)Cc1c[nH]cn1)[C@@H](C)O)[C@@H](C)O)C(C)C)C(=O)N[C@@H](C)C(=O)N[C@@H](Cc1c[nH]cn1)C(=O)N[C@@H](CC(C)C)C(=O)N[C@H](C(=O)N[C@@H](CCC(N)=O)C(=O)NCC(=O)N[C@@H](CCCNC(=N)N)C(=O)NCC(=O)O)C(C)C [GLP-1 peptide 8, N{Epsilon-26}-[2-[2-[2-[[2-[2-[2-[[(4S)-4-carboxy-4-(17-carboxy-heptadecanoylamino)butanoyl]amino]ethoxy]ethoxy]acetyl]amino]ethoxy]ethoxy]acetyl]-[Aib8,His31,Gln34]-GLP-1-(7-37)-peptide] | 0.363 ×10⁻⁶ cm/s | 0.184 ×10⁻⁶ cm/s
